{
  "source": "patent US20240287042A1",
  "about": "“NOVEL COMPOUND HAVING INHIBITORY ACTIVITY AGAINST PENDRIN, AND PHARMACEUTICAL USES THEREOF” (UIF (University Industry Foundation), Yonsei University, priority 2021, published 2024)",
  "key": {"SLC26A4 (pendrin)": {"system": "SLC26A4 (pendrin)", "experiment": "Pendrin protein and mRNA expression after LPS in hAEC", "assay_type": "cell-based, human"}, "[1]": {"system": "Adriamycin-induced heart failure mouse model", "experiment": "Diuretic effect in Adriamycin-induced heart failure mouse model", "assay_type": "in vivo, C57BL/6N mice", "settings": "heart failure mice", "experimental": "Wild-type male C57BL/6N mice aged 8 weeks and weighing 20-24 g were purchased from Orient Bio (Seongnam, South Korea). Cardiac ultrasound imaging was performed before administration of Adriamycin. […] Five weeks later, cardiac ultrasound imaging was performed to confirm whether heart failure had been induced.\nA 100 mg/ml stock concentration of YPI-A4948 dissolved in DMSO was prepared to have final concentrations of 0.1 mg/kg/100 ul, 0.5 mg/kg/100 ul and 1 mg/kg/100 ul (1% DMSO+DW), respectively. Heart failure mice were placed in mouse metabolic cages, and water and food were restricted. Before administering YPI-A4948, the bladder of the mouse was stimulated, and YPI-A4948 was injected intraperitoneally alone for two times in total, once every 3 hours for 6 hours. In other groups, it was administered with furosemide at 0.5 mg/kg and 1 mg/kg, respectively, in order to confirm the co-administration effect with other diuretics. Urine was collected from each group of mice after 6 hours."}, "human wild-type pendrin": {"molecular_target": "T1, human wild-type pendrin (Homo sapiens, UniProt O43511)", "T1 construct": "expressed in transfected cells; host or cells: human alveolar epithelial cells (hAEC) overexpressing pendrin", "T1 sequence (O43511 1-780)": "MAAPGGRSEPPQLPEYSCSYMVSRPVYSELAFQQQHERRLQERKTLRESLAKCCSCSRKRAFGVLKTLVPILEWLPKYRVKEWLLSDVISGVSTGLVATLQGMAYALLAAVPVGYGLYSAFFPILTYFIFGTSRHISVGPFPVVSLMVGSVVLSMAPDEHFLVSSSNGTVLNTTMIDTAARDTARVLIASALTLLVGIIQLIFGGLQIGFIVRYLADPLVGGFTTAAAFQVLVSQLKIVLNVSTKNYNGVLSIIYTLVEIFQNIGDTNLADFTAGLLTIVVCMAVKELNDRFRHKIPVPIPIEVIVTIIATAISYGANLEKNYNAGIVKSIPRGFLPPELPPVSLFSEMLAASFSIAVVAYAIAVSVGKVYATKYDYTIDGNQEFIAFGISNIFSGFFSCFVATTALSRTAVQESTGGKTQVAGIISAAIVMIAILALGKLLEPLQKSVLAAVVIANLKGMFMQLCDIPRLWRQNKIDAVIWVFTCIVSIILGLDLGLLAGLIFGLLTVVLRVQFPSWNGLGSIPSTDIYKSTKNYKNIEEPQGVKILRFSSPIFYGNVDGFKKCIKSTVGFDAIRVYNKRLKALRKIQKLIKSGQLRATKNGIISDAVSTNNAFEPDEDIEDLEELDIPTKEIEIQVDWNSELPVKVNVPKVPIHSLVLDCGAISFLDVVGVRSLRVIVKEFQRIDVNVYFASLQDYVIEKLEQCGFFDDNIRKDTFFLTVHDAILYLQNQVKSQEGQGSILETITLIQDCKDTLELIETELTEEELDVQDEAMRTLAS", "experiment": "Pendrin Cl−/SCN− exchange activity in human alveolar epithelial cells (hAEC) overexpressing pendrin", "assay_type": "cell-based", "settings": "0.3 μM to 30 μM, read-out: IC50 of human wild-type pendrin-mediated Cl−/SCN− exchange activity", "experimental": "In FIG. 13a, human alveolar epithelial cells (hAEC) overexpressing pendrin were treated with YPI-A4948 as a novel pendrin inhibitor from 0.3 μM to 30 μM, and the Cl^−/SCN^− exchange ability of SLC26A4 was measured by the change in YFP fluorescence when compared to before YPI-A4948 treatment. The IC50 of human wild-type pendrin-mediated Cl^−/SCN^− exchange activity was confirmed to be 0.9 μM."}},
  "data": [
    {"smiles": "Cc1ccc2[nH]c(C(=O)O)c(CC(=O)N3CCN(c4c(C)cccc4Cl)CC3)c2c1", "note": "[YPI-A4948, 3-(2-(4-(2-Chloro-6-methylphenyl)piperazin-1-yl)-2-oxoethyl)-5-methyl-1H-indole-2-carboxylic acid]", "values": [
      {"measurement": "Protein expression level of SLC26A4 (pendrin)", "setting": "SLC26A4 (pendrin); LPS treatment after YPI-A4948 pretreatment in vitro", "value": "inhibited by YPI-A4948 in a dose-dependent manner"},
      {"measurement": "mRNA expression level of pendrin", "setting": "SLC26A4 (pendrin); increased by LPS in vitro", "value": "not statistically significantly reduced"},
      {"measurement": "Diuretic effect, co-administered with furosemide", "setting": "[1]; 0.5 mg/kg YPI-A4948 and 1.0 mg/kg furosemide", "value": "additive effect"},
      {"measurement": "Diuretic effect, administered alone", "setting": "[1]; 1 mg/kg i.p. twice in 6 hours", "value": "showed a diuretic effect"},
      {"measurement": "IC50", "setting": "human wild-type pendrin", "value": 900, "unit": "nM"}
    ]}
  ]
}
